Source: patent US11566039B2, “Lincosamide antibiotics and uses thereof” (President and Fellows of Harvard College, priority 2017, dated 2023)
Converted amounts (≈) assume the structure as drawn. Like-named read-outs stand apart in the source and are kept apart here.

Legend:
Format in all cases: cell-based
E. faecalis ATCC 29212 = test: MIC against E. faecalis ATCC 29212
S. aureus BAA 977 iErmA = test: MIC against S. aureus BAA 977 iErmA; settings: Staphylococcus aureus, BAA977
S. pyogenes ATCC 19615 = test: MIC against S. pyogenes ATCC 19615
E. coli MP-9 ΔTolC = test: MIC against E. coli MP-9 ΔTolC
S. pneumoniae ATCC 49619 = test: MIC against S. pneumoniae ATCC 49619
S. aureus ATCC 29213 = test: MIC against S. aureus ATCC 29213
K. pneumoniae ATCC 10031 = test: MIC against K. pneumoniae ATCC 10031
E. coli ATCC 25922 = test: MIC against E. coli ATCC 25922
[1] = test system: S. aureus MP-549 msr(a) USA 300; test: MIC against S. aureus MP-549 msr(a) USA 300
[2] = test system: E. coli MP-74 LptD mutant; test: MIC against E. coli MP-74 LptD mutant
H. influenzae ATCC 49247 = test: MIC against H. influenzae ATCC 49247
[3] = Enterococcus faecalis, ATCC29212, E. faecalis ATCC 29212, read-out: MIC
[4] = Streptococcus pyogenes, ATCC19615, S. pyogenes ATCC 19615, read-out: MIC
[5] = Streptococcus pneumoniae, ATCC49619, S. pneumoniae ATCC 49619, read-out: MIC
[6] = Staphylococcus aureus, ATCC29213, S. aureus ATCC 29213, read-out: MIC
[7] = Klebsiella pneumoniae, ATCC10031, read-out: MIC
[8] = Escherichia coli, ATCC25922, read-out: MIC
[9] = Staphylococcus aureus, USA300, S. aureus MP-549 msr(a) USA 300
[10] = Haemophilus influenzae, ATCC49247, H. influenzae ATCC 49247, read-out: MIC
[11] = S. aureus MP-549 msr(a) USA 300

SMILES | MIC (E. faecalis ATCC 29212; [3]) [µg/mL] | MIC (S. pyogenes ATCC 19615; [4]) [µg/mL] | MIC (E. coli MP-9 ΔTolC; Escherichia coli) [µg/mL] | MIC (S. pneumoniae ATCC 49619; [5]) [µg/mL] | MIC (S. aureus ATCC 29213; [6]) [µg/mL] | MIC (K. pneumoniae ATCC 10031; [7]) [µg/mL] | MIC (E. coli ATCC 25922; [8]) [µg/mL] | MIC ([2]; Escherichia coli) [µg/mL] | MIC (H. influenzae ATCC 49247; [10]) [µg/mL] | also measured
CCC[C@@H]1C[C@@H](C(=O)N[C@H]([C@H](C)NC(=O)CCCN)[C@H]2OC(SC)[C@H](O)C(O)C2O)N(C)C1 (stereo partly drawn) [FSA-215052] | > 64 | 32 (≈ 65.2 µM) | > 64 | > 64 | > 64 | > 64 | > 64 | – | – | MIC (S. aureus BAA 977 iErmA): > 64 µg/mL
CCC[C@@H]1C[C@@H](C(=O)N[C@H]([C@H]2C=CCC2)[C@H]2OC(SC)[C@H](O)C(O)C2O)N(C)C1 (stereo partly drawn) [FSA-217003] | 64 (≈ 149 µM) | 0.5 (≈ 1.17 µM) | > 64 | 0.5 (≈ 1.17 µM) | 1 (≈ 2.33 µM) | > 64 | > 64 | > 64 | > 64 | MIC [1, 9]: 1 µg/mL (≈ 2.33 µM)
CCC[C@@H]1C[C@@H](C(=O)N[C@H](CNC23CC(C2)C3)[C@H]2OC(SC)[C@H](O)C(O)C2O)N(C)C1 (stereo partly drawn) [FSA-2140836] | > 64 | > 64 | – | > 64 | > 64 | – | > 64 | – | – | –
C#C[C@@H](NC(=O)[C@@H]1C[C@@H](CCC)CN1C)[C@H]1OC(SC)[C@H](O)C(O)C1O (stereo partly drawn) [FSA-217031] | 64 (≈ 166 µM) | 8 (≈ 20.7 µM) | > 64 | 4 (≈ 10.3 µM) | 64 (≈ 166 µM) | > 64 | > 64 | > 64 | > 64 | MIC [1, 9]: 32 µg/mL (≈ 82.8 µM)
CCC[C@@H]1C[C@@H](C(=O)N[C@H]([C@@H]2CCCC2N)[C@H]2OC(SC)[C@H](O)C(O)C2O)N(C)C1 (stereo partly drawn) [FSA-217045a] | > 64 | > 64 | > 64 | 64 (≈ 144 µM) | > 64 | > 64 | > 64 | > 64 | > 64 | MIC [1, 9]: > 64 µg/mL
CCC[C@@H]1C[C@@H](C(=O)N[C@H](CN(C)c2ccc(-c3cccnc3)cc2)[C@H]2OC(SC)[C@H](O)C(O)C2O)N(C)C1 (stereo partly drawn) [FSA-215009] | > 64 | 32 (≈ 57.3 µM) | – | 64 (≈ 115 µM) | 64 (≈ 115 µM) | – | > 64 | – | – | –
CCC[C@@H]1C[C@@H](C(=O)N[C@H]([C@@H]2CCC(O)C2O)[C@H]2OC(SC)[C@H](O)C(O)C2O)N(C)C1 (single isomer, unassigned) [FSA-217039b] | – | – | – | – | – | – | – | – | – | MIC (E. faecalis ATCC 29212; E. faecalis ATCC 29212): >64 µg/mL; MIC [1, 11]: 8 µg/mL (≈ 17.3 µM); MIC [2]: >64 µg/mL; MIC (S. pyogenes ATCC 19615; S. pyogenes ATCC 19615): 0.5 µg/mL (≈ 1.08 µM); MIC (E. coli MP-9 ΔTolC): >64 µg/mL; MIC (S. pneumoniae ATCC 49619; S. pneumoniae ATCC 49619): 1 µg/mL (≈ 2.16 µM); MIC (H. influenzae ATCC 49247; H. influenzae ATCC 49247): >64 µg/mL; MIC (S. aureus ATCC 29213; S. aureus ATCC 29213): 4 µg/mL (≈ 8.65 µM); MIC (K. pneumoniae ATCC 10031): >64 µg/mL; MIC (E. coli ATCC 25922): >64 µg/mL
CCC[C@@H]1C[C@@H](C(=O)N[C@H]([C@@H]2CCC(O)C2O)[C@H]2OC(SC)[C@H](O)C(O)C2O)N(C)C1 (single isomer, unassigned) [FSA-217039a] | > 64 | – | > 64 | – | – | > 64 | > 64 | > 64 | > 64 | MIC [1, 11]: >64 µg/mL; MIC (S. pyogenes ATCC 19615; S. pyogenes ATCC 19615): 8 µg/mL (≈ 17.3 µM); MIC (S. pneumoniae ATCC 49619; S. pneumoniae ATCC 49619): 8 µg/mL (≈ 17.3 µM); MIC (S. aureus ATCC 29213; S. aureus ATCC 29213): >64 µg/mL
CCC[C@@H]1C[C@@H](C(=O)N[C@H](COC(=O)Nc2ccccc2)[C@H]2OC(SC)[C@H](O)C(O)C2O)N(C)C1 (stereo partly drawn) [FSA-215036] | > 64 | 64 (≈ 125 µM) | > 64 | 16 (≈ 31.3 µM) | > 64 | > 64 | > 64 | – | – | MIC (S. aureus BAA 977 iErmA): > 64 µg/mL
CCC[C@@H]1C[C@@H](C(=O)N[C@H]([C@@H]2CCCC2N)[C@H]2OC(SC)[C@H](O)C(O)C2O)N(C)C1 (stereo partly drawn) [FSA-217045b] | – | – | – | – | – | – | – | – | – | MIC (E. faecalis ATCC 29212; E. faecalis ATCC 29212): >64 µg/mL; MIC [1, 11]: >64 µg/mL; MIC [2]: >64 µg/mL; MIC (S. pyogenes ATCC 19615; S. pyogenes ATCC 19615): >64 µg/mL; MIC (E. coli MP-9 ΔTolC): >64 µg/mL; MIC (S. pneumoniae ATCC 49619; S. pneumoniae ATCC 49619): 32 µg/mL (≈ 71.8 µM); MIC (H. influenzae ATCC 49247; H. influenzae ATCC 49247): >64 µg/mL; MIC (S. aureus ATCC 29213; S. aureus ATCC 29213): >64 µg/mL; MIC (K. pneumoniae ATCC 10031): >64 µg/mL; MIC (E. coli ATCC 25922): >64 µg/mL
CCC[C@@H]1C[C@@H](C(=O)N[C@H](CNc2ccc(-c3cncnc3)cc2)[C@H]2OC(SC)[C@H](O)C(O)C2O)N(C)C1 (stereo partly drawn) [FSA-214080] | > 64 | > 64 | – | > 64 | > 64 | – | > 64 | – | – | –
CCC[C@@H]1C[C@@H](C(=O)N[C@H](CNc2ccccc2)[C@H]2OC(SC)[C@H](O)C(O)C2O)N(C)C1 (stereo partly drawn) [FSA-214088] | > 64 | > 64 | – | > 64 | > 64 | – | > 64 | – | – | –
